ChEMBL document CHEMBL4196088, “Induction of cell killing and autophagy by amphiphilic pyrrolidine derivatives on human pancreatic cancer cells” (Eur J Med Chem, 2018)
Active and inactive are the calls of the source. No cut-off for these calls is given here.

Assays:
MIA PaCa-2 [1] = experiment: Induction of apoptosis in human MIAPaCa2 cells assessed as necrotic cells at 20 uM after 48 hrs by Annexin V-FITC/propidium iodide staining based flow cytometry (reference value: 0.63%); assay type: functional
BXPC-3 [2] = experiment: Induction of apoptosis in human BxPC3 cells assessed as accumulation at sub-G0/G1 phase at 10 uM after 48 hrs by propidium iodide staining based flow cytometry (reference value: 2.8%); assay type: functional
BXPC-3 [3] = experiment: Induction of apoptosis in human BxPC3 cells assessed as accumulation at sub-G0/G1 phase at 10 uM after 24 hrs by propidium iodide staining based flow cytometry (reference value: 1.8%); assay type: functional
PANC-1 [4] = experiment: Induction of apoptosis in human PANC1 cells assessed as accumulation at sub-G0/G1 phase at 10 uM after 72 hrs by propidium iodide staining based flow cytometry (reference value: 1.6 to 3.2%); assay type: functional
PK9 [5] = experiment: Induction of apoptosis in human PK9 cells assessed as accumulation at sub-G0/G1 phase at 10 uM after 48 hrs by propidium iodide staining based flow cytometry (reference value: 3.8%); assay type: functional
BXPC-3 [6] = experiment: Induction of apoptosis in human BxPC3 cells assessed as accumulation at sub-G0/G1 phase at 20 uM after 24 to 48 hrs in presence of caspase inhibitor zVAD-fmk by propidium iodide staining based flow cytometry; assay type: functional, cell-based
BXPC-3 [7] = experiment: Induction of apoptosis in human BxPC3 cells harboring pSFFV-Bcl-XL assessed as accumulation at sub-G0/G1 phase at 10 uM after 48 hrs by propidium iodide staining based flow cytometry (reference value: 1.9%); assay type: functional
BXPC-3 [8] = experiment: Induction of apoptosis in human BxPC3 cells assessed as accumulation at sub-G0/G1 phase at 20 uM after 48 hrs in presence of autophagy inhibitor bafilomycin A1 by propidium iodide staining based flow cytometry; assay type: functional, cell-based
MIA PaCa-2 [9] = experiment: Induction of apoptosis in human MIAPaCa2 cells assessed as early apoptotic cells at 20 uM after 48 hrs by Annexin V-FITC/propidium iodide staining based flow cytometry (reference value: 5.16%); assay type: functional
MIA PaCa-2 [10] = experiment: Induction of apoptosis in human MIAPaCa2 cells assessed as live cells at 20 uM after 24 hrs by Annexin V-FITC/propidium iodide staining based flow cytometry (reference value: 86.79%); assay type: functional
BXPC-3 [11] = experiment: Induction of apoptosis in human BxPC3 cells harboring pSFFV-Bcl-XL assessed as accumulation at sub-G0/G1 phase at 10 uM after 24 hrs by propidium iodide staining based flow cytometry (reference value: 1.5%); assay type: functional
Fibroblast [12] = experiment: Induction of apoptosis in human primary fibroblasts at 20 uM after 72 hrs by propidium iodide staining based flow cytometry (reference value: 6.7%); assay type: cell-based
Fibroblast [13] = experiment: Induction of apoptosis in human primary fibroblasts assessed as accumulation at sub-G0/G1 phase at 10 uM after 72 hrs by propidium iodide staining based flow cytometry (reference value: 6.7%); assay type: cell-based
PANC-1 [14] = experiment: Induction of apoptosis in human PANC1 cells assessed as accumulation at sub-G0/G1 phase at 10 uM after 48 hrs by propidium iodide staining based flow cytometry (reference value: 0.2 to 2.9%); assay type: functional
BXPC-3 [15] = experiment: Induction of autophagy in human BxPC3 cells assessed as increase in LC3-2 protein expression at 20 uM after 15 to 48 hrs by Western blot analysis; assay type: functional, cell-based
PK9 [16] = experiment: Induction of apoptosis in human PK9 cells assessed as accumulation at sub-G0/G1 phase at 20 uM after 24 hrs by propidium iodide staining based flow cytometry (reference value: 2.2%); assay type: functional
PANC-1 [17] = experiment: Induction of apoptosis in human PANC1 cells assessed as accumulation at sub-G0/G1 phase at 20 uM after 72 hrs by propidium iodide staining based flow cytometry (reference value: 1.6 to 3.2%); assay type: functional
Fibroblast [18] = experiment: Induction of apoptosis in human primary fibroblasts assessed as accumulation at sub-G0/G1 phase at 10 uM after 48 hrs by propidium iodide staining based flow cytometry (reference value: 6.1%); assay type: cell-based
Fibroblast [19] = experiment: Induction of apoptosis in human primary fibroblasts at 20 uM after 48 hrs by propidium iodide staining based flow cytometry (reference value: 6.1%); assay type: cell-based
BXPC-3 [20] = experiment: Induction of apoptosis in human BxPC3 cells harboring pSFFV-Bcl-XL assessed as accumulation at sub-G0/G1 phase at 10 uM after 72 hrs by propidium iodide staining based flow cytometry (reference value: 2%); assay type: functional
BXPC-3 [21] = experiment: Induction of apoptosis in human BxPC3 cells assessed as accumulation at sub-G0/G1 phase at 20 uM after 24 hrs by propidium iodide staining based flow cytometry (reference value: 2.3%); assay type: functional
BXPC-3 [22] = experiment: Induction of apoptosis in human BxPC3 cells assessed as accumulation at sub-G0/G1 phase at 20 uM after 48 hrs by propidium iodide staining based flow cytometry (reference value: 2.8%); assay type: functional
BXPC-3 [23] = experiment: Induction of apoptosis in human BxPC3 cells assessed as accumulation at sub-G0/G1 phase harboring pSFFV-Bcl-XL at 20 uM after 48 hrs by propidium iodide staining based flow cytometry (reference value: 1.3%); assay type: functional
PANC-1 [24] = experiment: Induction of apoptosis in human PANC1 cells assessed as accumulation at sub-G0/G1 phase at 20 uM after 48 hrs by propidium iodide staining based flow cytometry (reference value: 0.2 to 2.9%); assay type: functional
[25] = Induction of apoptosis in HPNE cells assessed as accumulation at sub-G0/G1 phase at 20 uM after 72 hrs by propidium iodide staining based flow cytometry (reference value: 6.6%); assay type: cell-based; details: human
MIA PaCa-2 [26] = experiment: Induction of apoptosis in human MIAPaCa2 cells assessed as early apoptotic cells at 20 uM after 24 hrs by Annexin V-FITC/propidium iodide staining based flow cytometry (reference value: 5.16%); assay type: functional
BXPC-3 [27] = experiment: Induction of apoptosis in human BxPC3 cells assessed as accumulation at sub-G0/G1 phase at 20 uM after 48 hrs in presence of autophagy inhibitor chloroquine by propidium iodide staining based flow cytometry; assay type: functional, cell-based
MIA PaCa-2 [28] = experiment: Induction of apoptosis in human MIAPaCa2 cells assessed as late apoptotic cells at 20 uM after 48 hrs by Annexin V-FITC/propidium iodide staining based flow cytometry (reference value: 7.4%); assay type: functional
[29] = Induction of apoptosis in HPNE cells assessed as accumulation at sub-G0/G1 phase at 10 uM after 48 hrs by propidium iodide staining based flow cytometry (reference value: 0.7%); assay type: cell-based; details: human
Fibroblast [30] = experiment: Induction of apoptosis in human primary fibroblasts at 20 uM after 24 hrs by propidium iodide staining based flow cytometry (reference value: 4.8%); assay type: cell-based
[31] = Induction of apoptosis in HPNE cells assessed as accumulation at sub-G0/G1 phase at 10 uM after 24 hrs by propidium iodide staining based flow cytometry (reference value: 0.6%); assay type: cell-based; details: human
BXPC-3 [32] = experiment: Induction of apoptosis in human BxPC3 cells assessed as accumulation at sub-G0/G1 phase harboring pSFFV-Bcl-XL at 20 uM after 24 hrs by propidium iodide staining based flow cytometry (reference value: 1.2%); assay type: functional
MIA PaCa-2 [33] = experiment: Induction of apoptosis in human MIAPaCa2 cells assessed as necrotic cells at 20 uM after 24 hrs by Annexin V-FITC/propidium iodide staining based flow cytometry (reference value: 0.63%); assay type: functional

Compound `CCCCCC/C=C\CCCCCCCCOC[C@H]1NC[C@H](O)[C@@H]1O` has an Activity (MIA PaCa-2 [1]) of 3.44%, an Activity (BXPC-3 [2]) of 12.8% and an Activity (BXPC-3 [3]) of 9.6%. The Activity (PANC-1 [4]) was 18.6%, the Activity (PK9 [5]) was 6.1% and the Activity (BXPC-3 [6]) was “inactive”. The Activity (BXPC-3 [7]) was 3.7%, the Activity (BXPC-3 [8]) was “Active” and the Activity (MIA PaCa-2 [9]) was 47.46%. It also gave an Activity (MIA PaCa-2 [10]) of 76.71%, an Activity (BXPC-3 [11]) of 2% and an Activity (Fibroblast [12]) of 18.7%. The Activity (Fibroblast [13]) was 9.5%, the Activity (PANC-1 [14]) was 7.1% and the Activity (BXPC-3 [15]) was “Active”. For the same compound, the Activity (PK9 [16]) was 10.1%, the Activity (PANC-1 [17]) was 27.1% and the Activity (Fibroblast [18]) was 8.7%. It also gave an Activity (Fibroblast [19]) of 13.9%, an Activity (BXPC-3 [20]) of 4.1% and an Activity (BXPC-3 [21]) of 15.8%. The Activity (BXPC-3 [22]) was 33.7%, the Activity (BXPC-3 [23]) was 6.7% and the Activity (PANC-1 [24]) was 14.5%. The Activity [25] was 81.7%, the Activity (MIA PaCa-2 [26]) was 11.88% and the Activity (BXPC-3 [27]) was “Active”. The Activity (MIA PaCa-2 [28]) was 44.69%, the Activity [29] was 30.8% and the Activity (Fibroblast [30]) was 9.2%. For the same compound, the Activity [31] was 23.9%, the Activity (BXPC-3 [32]) was 2.8% and the Activity (MIA PaCa-2 [33]) was 0.71%.
`CCCCCCCCCCCCCCCCCCOCC(COP(=O)([O-])OCC[N+](C)(C)C)OC` (stereo unspecified) [EDELFOSINE] gave an Activity (MIA PaCa-2 [1]) of 1.79%, an Activity (BXPC-3 [2]) of 16.5% and an Activity (BXPC-3 [3]) of 14.2%. For the same compound, the Activity (PANC-1 [4]) was 15.8%, the Activity (PK9 [5]) was 8% and the Activity (BXPC-3 [6]) was “inactive”. For the same compound, the Activity (BXPC-3 [7]) was 3.7%, the Activity (BXPC-3 [8]) was “Active” and the Activity (MIA PaCa-2 [9]) was 49.78%. For the same compound, the Activity (MIA PaCa-2 [10]) was 11.51%, the Activity (BXPC-3 [11]) was 1.8% and the Activity (Fibroblast [12]) was 9.8%. The Activity (Fibroblast [13]) was 8.7%, the Activity (PANC-1 [14]) was 11.5% and the Activity (BXPC-3 [15]) was “Active”. It also gave an Activity (PK9 [16]) of 4.8%, an Activity (PANC-1 [17]) of 23.2% and an Activity (Fibroblast [18]) of 7.2%. It also gave an Activity (Fibroblast [19]) of 8.6%, an Activity (BXPC-3 [20]) of 2.6% and an Activity (BXPC-3 [21]) of 16.8%. The Activity (BXPC-3 [22]) was 28.9%, the Activity (BXPC-3 [23]) was 5% and the Activity (PANC-1 [24]) was 16.2%. For the same compound, the Activity [25] was 8.2%, the Activity (MIA PaCa-2 [26]) was 28.49% and the Activity (BXPC-3 [27]) was “Active”. The Activity (MIA PaCa-2 [28]) was 45.92%, the Activity [29] was 3.5% and the Activity (Fibroblast [30]) was 7.3%. For the same compound, the Activity [31] was 1.9%, the Activity (BXPC-3 [32]) was 3% and the Activity (MIA PaCa-2 [33]) was 7.47%.
